Reference: ChEMBL document CHEMBL3044873, “Aryl N, N-Dimethylcarbamates, Synergists for Organophosphorus Insecticides against Organophos-phorusresistant Rice Stem Borers” (J Pestic Sci, 1990)

Test system: Chilo suppressalis
Assay: Potentiation of pirimiphos-methyl-induced insecticidal activity against OP-resistant Chilo suppressalis Hata-f (rice stem borer) assessed as synergistic ratio at 1:5 pirimiphos-methyl to compound ratio relative to pirimiphos-methyl alone
Format: functional

SMILES | fold change (FC)
Cc1cc(OC(=O)N(C)C)no1 | 438
CN(C)C(=O)Oc1cc(-c2ccccc2)on1 | 328
CNc1nc(C)cc(OC(=O)N(C)C)n1 | 451
CCN(CC)c1nc(C)cc(OC(=O)N(C)C)n1 | 440
Cc1cc(OC(=O)N(C)C)ccc1[N+](=O)[O-] | 196

Test system: Chilo suppressalis
Assay: Potentiation of fenitrothion-induced insecticidal activity against OP-susceptible Chilo suppressalis (rice stem borer) S strain assessed as synergistic ratio at 1:10 fenitrothion to compound ratio relative to fenitrothion alone
Format: functional

SMILES | fold change (FC)
CN(C)C(=O)Oc1cc(-c2ccccc2)on1 | 0.9
CCN(CC)c1nc(C)cc(OC(=O)N(C)C)n1 | 1
Cc1cc(OC(=O)N(C)C)ccc1[N+](=O)[O-] | 0.7

Test system: Chilo suppressalis
Assay: Potentiation of pirimiphos-methyl-induced insecticidal activity against OP-resistant Chilo suppressalis Hata-f (rice stem borer) assessed as synergistic ratio at 1:10 pirimiphos-methyl to compound ratio relative to pirimiphos-methyl alone
Format: functional

SMILES | fold change (FC)
Cc1cc(OC(=O)N(C)C)no1 | 582
CN(C)C(=O)Oc1cc(-c2ccccc2)on1 | 419
CNc1nc(C)cc(OC(=O)N(C)C)n1 | 818
CCN(CC)c1nc(C)cc(OC(=O)N(C)C)n1 | 451
Cc1cc(OC(=O)N(C)C)ccc1[N+](=O)[O-] | 207

Test system: Chilo suppressalis
Assay: Potentiation of pirimiphos-methyl-induced insecticidal activity against OP-resistant Chilo suppressalis Hata-f (rice stem borer) assessed as synergistic ratio at 1:1 pirimiphos-methyl to compound ratio relative to pirimiphos-methyl alone
Format: functional

SMILES | fold change (FC)
Cc1cc(OC(=O)N(C)C)no1 | 90
CN(C)C(=O)Oc1cc(-c2ccccc2)on1 | 67
CNc1nc(C)cc(OC(=O)N(C)C)n1 | 129
CCN(CC)c1nc(C)cc(OC(=O)N(C)C)n1 | 86
Cc1cc(OC(=O)N(C)C)ccc1[N+](=O)[O-] | 67

Test system: Chilo suppressalis
Assay: Potentiation of fenitrothion-induced insecticidal activity against OP-resistant Chilo suppressalis Hata-f (rice stem borer) assessed as synergistic ratio at 1:10 fenitrothion to compound ratio relative to fenitrothion alone
Format: functional

SMILES | fold change (FC)
Cc1ccccc1OC(=O)N(C)C [O-TOLYL DIMETHYLCARBAMATE] | 4.3
CNC(=O)Oc1ccc(SC)cc1 [4-(METHYLTHIO)PHENYL METHYLCARBAMATE] | 1.1
CN(C)C(=S)Oc1ccc(C#N)cc1 | 2.1
CN(C)C(=O)Oc1cccc(Cl)c1 [3-CHLOROPHENYL DIMETHYLCARBAMATE] | 11
Cc1cc(OC(=O)Nc2ccccc2)ccc1Cl | 0.8
CCNC(=O)Oc1ccc(C#N)cc1 [4-CYANOPHENYL ETHYLCARBAMATE] | 1.5
CCN(CC)C(=O)Oc1ccc(SC)c(C)c1 | 4.6
CC(C)c1cccc(OC(=O)N(C)C)c1 [3-ISOPROPYLPHENYL DIMETHYLCARBAMATE] | 4.3
COc1ccc(OC(=O)N(C)C)cc1 [4-METHOXYPHENYL DIMETHYLCARBAMATE] | 3
CN(C)C(=O)Oc1ccccc1 [PHENYL DIMETHYLCARBAMATE] | 5.8
CCOC(=O)/C=C(\C)OC(=O)N(C)C | 1
CNC(=O)Oc1ccc([N+](=O)[O-])c(C)c1 | 1.1
Cc1cc(OC(=O)N(C)C)no1 | 16
Cc1ccc(OC(=O)N(C)C)cc1 [P-TOLYL DIMETHYLCARBAMATE] | 8.1
CN(C)C(=O)Sc1ccc([N+](=O)[O-])cc1 | 1.9
CSc1nc(C)cc(OC(=O)N(C)C)n1 | 14
CSc1ccc(OC(=S)N(C)C)cc1C | 4.9
CCSCCOC(=O)N(C)C [2-(ETHYLTHIO)ETHYL DIMETHYLCARBAMATE] | 1
COC(=O)c1ccc(OC(=O)N(C)C)cc1 [METHYL 4-(DIMETHYLCARBAMOYLOXY)BENZOATE] | 6.3
CCN(CC)C(=O)Oc1ccc(Cl)c(C)c1 | 1.8
Cc1cc(C)cc(OC(=O)N(C)C)c1 [3,5-DIMETHYLPHENYL DIMETHYLCARBAMATE] | 5.8
CN(C)C(=O)OCc1ccccc1 [BENZYL DIMETHYLCARBAMATE] | 0.9
CN(C)C(=O)Oc1cc(-c2ccccc2)on1 | 23
CCN(CC)C(=O)Oc1ccc([N+](=O)[O-])c(C)c1 | 2.3
CNC(=O)Oc1ccc(Cl)c(C)c1 | 1.1

SMILES | fold change (FC)
Cc1cc(OC(=O)N(C)C)nc(Nc2ccccc2)n1 | 2.8
CCNC(=O)Oc1ccc(Cl)c(C)c1 | 1.2
Cc1ccc([N+](=O)[O-])c(OC(=O)N(C)C)c1 | 3.1
COc1nc(C)cc(OC(=O)N(C)C)n1 | 13
CCN(CC)C(=O)Oc1ccc(C#N)cc1 [4-CYANOPHENYL DIETHYLCARBAMATE] | 1.7
Cc1cc(OC(=S)N(C)C)ccc1[N+](=O)[O-] | 1.3
CN(C)C(=O)Oc1nc(Cl)c(Cl)cc1Cl | 4.1
O=C(Nc1ccccc1)Oc1ccc([N+](=O)[O-])cc1 [4-NITROPHENYL PHENYLCARBAMATE] | 0.9
CN(C)C(=O)OCc1ccc2c(c1)OCO2 | 0.9
Cc1cc(OC(=O)N(C)C)ccc1Cl | 12
CC(C)OC(=O)c1ccc(OC(=O)N(C)C)cc1 [ISOPROPYL 4-(DIMETHYLCARBAMOYLOXY)BENZOATE] | 0.9
Cc1cc(OC(=O)N(C)C)nc(C)n1 | 11
CN(C)C(=O)Oc1ccc([N+](=O)[O-])c(Cl)c1 | 6.3
CN(C)C(=O)Sc1ccc(Cl)cc1 | 1.9
CN(C)C(=O)Oc1cccc2cccnc12 | 4.6
CSc1ccc(OC(=O)Nc2ccccc2)cc1C | 0.7
CSc1ccc(OC(=O)N(C)C)cc1 [4-(METHYLTHIO)PHENYL DIMETHYLCARBAMATE] | 16
CN(C)C(=O)Oc1ccc([N+](=O)[O-])cc1[N+](=O)[O-] [2,4-DINITROPHENYL DIMETHYLCARBAMATE] | 0.8
CCNC(=O)Oc1ccc([N+](=O)[O-])cc1 [4-NITROPHENYL ETHYLCARBAMATE] | 1.2
CCN(CC)C(=O)Oc1cc(C)nc(N(C)C)n1 | 13
Cc1ccc(OC(=O)N(C)C)cc1C [3,4-DIMETHYLPHENYL DIMETHYLCARBAMATE] | 9.5
CN(C)C(=O)Oc1cccc([N+](=O)[O-])c1 [3-NITROPHENYL DIMETHYLCARBAMATE] | 8.2
CCN(CC)C(=O)Oc1cc(-c2ccccc2)on1 | 4.1
CN(C)C(=O)Oc1ccc2ccccc2c1 [NAPHTHALEN-2-YL DIMETHYLCARBAMATE] | 16
Cc1nc(N(C)C)nc(OC(=O)N(C)C)c1C [PIRIMICARB] | 6.3

SMILES | fold change (FC)
CNC(=O)Oc1ccc(C#N)cc1 [4-CYANOPHENYL METHYLCARBAMATE] | 1.1
Cc1cc(OC(=O)N(C)C)nc(C(C)C)n1 | 15
CN(C)C(=O)Oc1ccccn1 | 11
CNC(=O)Oc1ccc(SC)c(C)c1 | 0.8
Cc1c(OC(=O)N(C)C)cc([N+](=O)[O-])cc1[N+](=O)[O-] | 1.1
CNc1nc(C)cc(OC(=O)N(C)C)n1 | 21
CCOC(=O)Nc1ccccc1 [ETHYL PHENYLCARBAMATE] | 0.8
CN(C)C(=O)Oc1ccc(-c2ccccc2)cc1 | 2
CN(C)C(=O)Oc1ccc([N+](=O)[O-])cc1Cl | 2.4
CCN(CC)C(=O)Oc1ccc([N+](=O)[O-])cc1 [4-NITROPHENYL DIETHYLCARBAMATE] | 3.3
N#Cc1ccc(OC(=O)Nc2ccccc2)cc1 [4-CYANOPHENYL PHENYLCARBAMATE] | 0.8
Cc1cc(OC(=O)N(C)C)cc(C)c1Cl | 11
CCNC(=O)Oc1cccc2ccccc12 | 1
CN(C)CCOC(=O)N(C)C [2-(DIMETHYLAMINO)ETHYL DIMETHYLCARBAMATE] | 1
CN(C)C(=O)Oc1cccc2ccccc12 | 13
Cc1ccc(OC(=O)N(C)C)c([N+](=O)[O-])c1 | 5.8
Cc1cccc(OC(=O)N(C)C)c1 [M-TOLYL DIMETHYLCARBAMATE] | 9.2
CN(C)C(=O)Oc1ccc(C#N)cc1 [4-CYANOPHENYL DIMETHYLCARBAMATE] | 14
CCN(CC)C(=O)Oc1ccc(SC)cc1 [4-(METHYLTHIO)PHENYL DIETHYLCARBAMATE] | 2.9
Cc1cc(OC(=O)Nc2ccccc2)ccc1[N+](=O)[O-] | 0.9
CCNC(=O)Oc1ccc(SC)c(C)c1 | 0.6
CN(C)C(=O)Oc1ccc(Cl)cc1 [4-CHLOROPHENYL DIMETHYLCARBAMATE] | 10
Cc1cc(OC(=O)N(C)C)nc(-c2ccccc2)n1 | 13
CCN(CC)c1nc(C)cc(OC(=O)N(C)C)n1 | 20
O=C(Nc1ccccc1)Oc1cccc2ccccc12 | 1

SMILES | fold change (FC)
Cc1cc(OC(=O)N(C)C)ccc1[N+](=O)[O-] | 23
CCNC(=O)Oc1ccc([N+](=O)[O-])c(C)c1 | 0.7
CN(C)C(=O)Oc1ccc(=O)n(-c2ccccc2)n1 | 3.1
CN(C)C(=O)Oc1ccc([N+](=O)[O-])cc1 [4-NITROPHENYL DIMETHYLCARBAMATE] | 10
CN(C)C(=O)Oc1cc(Cl)c(Cl)cc1Cl [2,4,5-TRICHLOROPHENYL DIMETHYLCARBAMATE] | 5.8
CNC(=O)Oc1ccc([N+](=O)[O-])cc1 [4-NITROPHENYL METHYLCARBAMATE] | 0.9
CC(=O)c1ccc(OC(=O)N(C)C)cc1 [4-ACETYLPHENYL DIMETHYLCARBAMATE] | 6.9
CCN(CC)C(=O)Oc1cccc2ccccc12 | 2.5
CN(C)C(=O)OCc1ccc([N+](=O)[O-])cc1 [4-NITROBENZYL DIMETHYLCARBAMATE] | 1
CCN(CC)C(=O)Oc1cc(C)nc(N(CC)CC)n1 | 8.7
CN(C)C(=O)Oc1ccc2ccccc2n1 | 15
CN(C)C(=S)Oc1ccc([N+](=O)[O-])cc1 | 1.6
CN(C)C(=O)Oc1cccc(C(C)(C)C)c1 | 3.5
CCC(C)c1ccccc1OC(=O)N(C)C (stereo not given) | 1.8
CSc1ccc(OC(=S)N(C)C)cc1 | 2.3
Cc1cc(OC(=S)N(C)C)ccc1Cl | 4.1
CCNC(=O)Oc1ccc(SC)cc1 [4-(METHYLTHIO)PHENYL ETHYLCARBAMATE] | 1.4
CN(C)C(=O)Oc1ccc([N+](=O)[O-])c(C(F)(F)F)c1 | 8
CN(C)C(=O)Oc1ccccc1Cl [2-CHLOROPHENYL DIMETHYLCARBAMATE] | 5.1
CN(C)C(=O)Oc1c(Cl)cc(Cl)c2ccccc12 | 1.3
CN(C)C(=O)Oc1ccccc1[N+](=O)[O-] [2-NITROPHENYL DIMETHYLCARBAMATE] | 5.8
CN(C)C(=O)SCc1ccccc1 [S-BENZYL DIMETHYLCARBAMOTHIOATE] | 1
